Measured values: patent publication US8512964B2, “Targets for treatment of hypercholesterolemia” (The Regents of the University of California, priority 2008, dated 2013)
Residues, ends and D or L forms follow the SMILES beside them. *: point of attachment. Cbz = O=C(OCc1ccccc1)*

How the values were obtained:
[1] = tested on: HepG2 cells; experiment: BODIPY-LDL binding and uptake assay in HepG2 cells; type: cell-based; conditions: 1 μM ligand, FIG. 1A
Procedure: HepG2 cells were plated at density of 40,000 cells/well. On the following day the cells were pre-treated for 8 hrs with DMSO, 1 μM GW3965, or 1 μM T0901317 in DMEM supplemented with 10% FBS. MEFs (DKO-mLxra) were plated similarly and infected on the following day with the indicated adenovirus (MOI 300) for 18 hrs. Subsequently, cells were washed twice with PBS and incubated for an additional 16 hrs in sterol deficient medium to induce expression of the LDLR. In experiments with HepG2 cells the sterol deficient medium further contained the LXR synthetic ligands indicated above. Uptake was initiated by incubating cells in 200 μl of serum deficient medium containing 5 μg/mL of BODIPY-LDL. For measuring binding of BODIPY-LDL to cells, plates were placed on ice prior to processing. Uptake of BODIPY-LDL was measured after a 30 minute incubation period at 37° C. At that point cells were washed 2× with PBS containing 0.2% BSA and lysed in 100 μl RIPA buffer supplemented with protease inhibitors. Lysates were collected and cleared by centrifugation and 30 μl of cleared lysate was transferred into a 384 well plate and measured on a Typhoon apparatus (Amersham) with filters set for BODIPY. The protein concentration of the cleared lysates was determined and results are presented as relative fluorescence normalized for protein content.

[2] = tested on: LDLR; experiment: Immunoblot of LDLR protein in immortalized Lxrαβ(−/−) MEFs stably expressing LXRα or vector control; type: cell-based, mouse; conditions: Lxrαβ(−/−) MEFs with LXRα or vector control, sterol depletion medium, FIG. 1E
Procedure: The cell lines HEK293T, HepG2, and SV589 were obtained from ATCC. HEK293T were cultured in Optimem containing 2% FBS. HepG2 and SV589 were cultured in DMEM supplemented with 10% FBS. immortalized Lxrαβ^(−/−) mouse embryonic fibroblasts (MEFs) were obtained by immortalizing E13.5 MEFs with a SV40 Large-T antigen retrovirus. To reconstitute mLxrα we transfected Phenix cells with pBabehygro or pBabehygro-mLxra. The resulting supernatant containing the corresponding retroviral particles was used to infect immortalized MEFs. Cells were selected in 800 μg/mL Hygromycin and surviving cells were used. HepG2-LDLR-GFP cells were generated by transfecting HepG2 cells with pEGFP-N1-LDLR and selecting cells with G418 (800 μg/mL).
Primary hepatocytes were isolated and maintained as previously reported (Pei et al. (2006) Nat Med 12: 1048). HEK293T cells were transfected using lipofectamine2000 (invitrogen). […] Under these conditions more than 90% of the cells were transduced as assessed by GFP immunofluorescence. […]
(§1) Total cell or tissue lysates were prepared in RIPA buffer (150 mM NaCl, 1% NP-40, 0.1% Sodium Deoxycholate, 0.1% SDS, 100 mM Tris-HCl, pH 7.4) supplemented with protease inhibitors (Roche Molecular Biochemicals). […] Protein concentration of the cleared lysates was determined using the Bradford assay (Biorad) with BSA as reference. […]

[3] = tested on: Mylip; experiment: Mylip expression in vivo after gavage of mice (realtime PCR); parameters: species or system mouse; conditions: mice gavaged 20 mg/kg twice daily for three days, FIG. 2C
Procedure: Total RNA was isolated from cells and mouse tissues using Trizol (Invitrogen). One microgram of total RNA was reverse transcribed with random hexamers using iScript reverse transcription reagents kit (Biorad). Sybergreen (Diagenode) real-time quantitative PCR assays were performed using an Applied Biosystems 7900HT sequence detector.

[4] = tested on: Mylip LXRE; experiment: Mylip promoter (LXRE) reporter assay in HEK293 cells transfected with LXR and RXR; type: cell-based, mouse; conditions: activation by LXRa and GW3965, functional LXRE, FIG. 6D
Procedure: A 10 Kb promotor region upstream of the mMylip transcription initiation site was analyzed for the presence of LXR binding elements. A consensus DR4 site was identified 2454 upstream of the transcription initiation site. Olignoucleotides encompassing this element were designed, annealed and tested for binding to LXR/RXR heterodimers in a standard EMSA assay. A 2.5 kB promotor fragment upstream of the transcription initiation site containing the identified LXRE was amplified by PCR from BAC clone RP23-17N24 using mMylip-prom-FWD […] (SEQ ID NO:20) or mMylip-prom-ΔFWD […] (SEQ ID NO:21) with the common antisense primer mMylip-prom-REV […] (SEQ ID NO:22). Amplified fragments were cloned as SacI/XhoI fragments into pGL3 basic (Promega). Promotor analysis was done as previously described (Joseph et al. (2002) J Biol Chem 277: 11019).

[5] = tested on: LDLR; experiment: LDLR ubiquitination in HEK293 cells co-transfected with LDLR, Mylip and HA-Ubiquitin; type: cell-based; conditions: 25 μM for 6 h, FIG. 3G
Procedure: Primary hepatocytes were isolated and maintained as previously reported (Pei et al. (2006) Nat Med 12: 1048). HEK293T cells were transfected using lipofectamine2000 (invitrogen). Typically, 0.8×10^6 cells were seeded in a 60 mm well and transfected the following day with 2 μg DNA. In experiments testing the ability of Mylip to degrade other potential protein targets a ratio of 3:1 (Mylip:target) was used. To infect MEFs and SV589 with adenovirus cells were seeded (0.2×10^6 cells/60 mm well) and infected the following day at an MOI of 300. HepG2 cells were infected at an MOI of 80. Primary hepatocytes were infected 4 hrs after plating at an MOI of 20. Infections were allowed to proceed for 18 hrs after which culture medium was replaced. Under these conditions more than 90% of the cells were transduced as assessed by GFP immunofluorescence. Where indicated, cells were subsequently sterol starved by incubating cells in DMEM supplemented with 10% LPDS, 5 μM Simvastatin, and 100 μM Mevalonic acid for an additional 18 hrs (sterol deficient medium).
as §1

| SMILES | binding and uptake of bodipy labeled-LDL [1] | LDLR protein [2] | further results |
| --- | --- | --- | --- |
| O=C(O)Cc1cccc(OCCCN(Cc2cccc(C(F)(F)F)c2Cl)CC(c2ccccc2)c2ccccc2)c1 [GW3965] | decreased | decreased LDLR only in cells expressing LXRα | Mylip expression in vivo [3]: induced; increase in reporter activity [4]: ~4 fold |
| O=S(=O)(c1ccccc1)N(CC(F)(F)F)c1ccc(C(O)(C(F)(F)F)C(F)(F)F)cc1 [T0901317] | decreased | – | – |
| CC(C)CC[C@@H](O)[C@@H](C)[C@H]1CC[C@H]2[C@@H]3CC=C4C[C@@H](O)CC[C@]4(C)[C@H]3CC[C@]12C [22(R)-hydroxycholesterol] | – | decreased LDLR protein in the absence or presence of LXRs | – |
| CC(C)C[C@@H](C=O)NC(=O)[C@H](CC(C)C)NC(=O)[C@H](CC(C)C)NC(=O)OCc1ccccc1 [MG132] (Cbz-Leu-Leu-Leu-aldehyde) | – | – | Mylip expression [5]: greatly stabilizing; Mylip-dependent level of LDLR ubiquitination [5]: did not increase |
